The text below walks through data of US8603968B2, “Cyclic peptides comprising at least one aza-β3-aminoacyl residue and their uses” (Centre National de la Recherche Scientifique, priority 2007, dated 2013).

Values after ≈ are worked out from the molar mass of the structure shown.

For one data set, the system named is sheep erythrocytes. Description: Haemolytic activity on sheep erythrocytes. In kind it is cell-based. The conditions noted are these: at the doses tested, 1 hour at 37° C. How it is done:
The haemolytic activity of the pseudopeptides is tested on sheep blood cells. The sheep erythrocytes are washed three times with a phosphate buffer saline [PBS buffer (pH 7.4)] by 5 minutes' centrifugation at 900 g and the final pellet is suspended in PBS. For the concentration of the erythrocyte solution, a concentration of erythrocytes corresponding to OD540 nm is established, and for the control well 100% haemolysis in the presence of 0.8 Triton X-100. The solutions of the different pseudopeptides diluted in water (100 μL) are arranged in a 96-well plate. 50 μL, of PBS 2× buffer solution then 50 μL of sheep erythrocyte solution is added to these solutions in order to produce a final volume of 200 μL. The suspensions obtained are incubated for 1 hour at 37° C. The samples are then centrifuged at 500 g for 5 min. 130 μL of supernatant of each sample is transferred to a new 96-well plate. The release of haemoglobin is quantified by measuring the absorbance at 540 nm of the supernatant by means of a microplate reader. The controls corresponding to the absence of haemolysis (white) and 100% haemolysis involve, respectively, the addition of 100 μL of PBS buffer and 100 μL of a 2% Triton X-100 solution to the wells containing 100 μL of saline erythrocyte solution (50 μL of PBS 2× and 50 μL of blood cell solution). Each measurement is carried out in triplicate.

In data set [1] the test system is rabbit erythrocytes. Description: Haemolytic activity on rabbit erythrocytes. The data set is classed as cell-based. How it is done:
The haemolytic activity of the pseudopeptides is tested on rabbit blood cells. Fresh rabbit erythrocytes are washed three times with a phosphate buffer saline [PBS buffer (pH 7.4)] by centrifugation for 5 min at 900 g and the final pellet is suspended in PBS. The NafNaf pseudopeptide solutions diluted in PBS (90 μL) are arranged in a 96-well plate. 90 μL of 2% rabbit erythrocyte solution (v/v) is added to these solutions to give a final volume of 180 μL and a concentration of 1% (v/v) blood cells. The suspensions obtained are incubated for 1 hour at 37° C. The samples are then centrifuged at 500 g for 5 min. 100 μL of supernatant of each sample is transferred into a new 96-well plate. The release of the haemoglobin is quantified by measuring the absorbance at 415 nm of the supernatant using a microplate reader. The controls corresponding to the absence of haemolysis (white) and to a 100% haemolysis consist, respectively, of the addition of 90 μL of PBS buffer and 90 μL of a 2% solution of Triton X-100 to the 90 μL of 2% blood cell solution. Each measurement is carried out in triplicate.

Data set [2] can be described thus: In vitro cytotoxicity (MTT). The data set is classed as cell-based, hamster. The following applies: hamster, CHO-K1 cells; read-out: lethal dose for 50% of the cells (LD50). How it is done:
(§1) The effects of the different cyclic pseudopeptides on cell growth are evaluated in sterile 96-well plates. The cells are seeded at 5.10^5 cells per mL of culture medium (100 μL per well). The different pseudopeptides (10 μL per well) diluted in a saline solution are added at the time of seeding at the appropriate concentration (from 1 μg/mL to 1 mg/mL). The incubations are carried out at 37° C. under a humidified atmosphere containing 5% CO2 for 24 or 48 hours.
(§2) After exposure to the compounds, the cell growth is assessed by measuring the formation of formazan from 3-(4,5-dimethylthiazol-2-yl)-2,5-diphenyltetrazolium (MTT). The absorbance at 540 nm is measured by a Titertek Multiscan MCC/340 microplate reader. Each measurement is carried out in triplicate.

A further data set concerns hamster cells (CHO-K1). Description: In vitro cytotoxicity (MTT). The conditions noted are these: at 10 μg/mL. In kind it is cell-based. The protocol:
as §1, §2

Data set [3] deals with mouse cell line ascites 302-sp. Description: In vitro cytotoxicity (MTT). The data set is classed as cell-based. The protocol: as §1, §2
Data set [4] has as its system Gram-negative bacteria (E. coli to A. caviae). Description: Antibacterial activity in TSB rich medium (MIC), Gram-negative bacteria. The data set is classed as cell-based. The conditions noted are these: 48 hours, at the concentrations tested (0.78-100 μM). How it is done:
The tests were carried out on Gram-negative bacterial strains: Escherichia coli ATCC 25922, Salmonella enterica ATCC 13076, Pseudomonas aeruginosa ATCC 27853, Klebsiella oxytoca CIP 7932, Enterobacter aerogenes ATCC 13048 and Aeromonas caviae ATCC 15468 and on Gram-positive strains: Staphylococcus aureus ATCC 25923, Enterococcus faecalis CIP 186, Streptococcus equinus ATCC 5623, Listeria monocytogenes SOR 100, Bacillus megaterium ATCC 10778, Lactococcus gaviae ATCC 43921, Micrococcus luteus ATCC 10240.
The bacteria (10^5 CFU/mL) are incubated in a TSB (Tryptic Soy Broth) rich medium with increasing concentrations of cyclopseudopeptides (0.78, 3.12, 6.25, 12.5, 25, 50, 100 μM). This test is carried out in 96-well microplates. After incubation for 48 hours at 20° C. or 37° C., the optical density of the microplates is read at 595 nm in order to evaluate the bacterial growth and determine the minimum inhibitory concentration (MIC) for each molecule tested. Each measurement is carried out in triplicate.

In a further data set the test system is Streptococcus aureus. Briefly: Antibacterial activity in poor medium enriched with beef extract PBB (MIC, MBC). In kind it is cell-based. The following applies: increasing doses (FIG. 3). The protocol:
(§3) The tests were carried out on Gram-negative bacterial strains of Group 2 (pathogens): Escherichia coli, Salmonella thyphimurium, Pseudomonas aeruginosa, Klebsiella pneumonie and on Gram-positive strains: Bacillus megaterium (group 1) and […] (group 2).
(§4) The bacteria are incubated in a PB poor medium in the case of the bacteria: Escherichia coli, Pseudomonas aeruginosa, Klebsiella pneumoniae, Bacillus megaterium and in a poor medium enriched with beef extract PBB in the case of two other bacteria: […] and Salmonella thyphimurium with increasing concentrations of peptides or analogues ranging from 1 to 320 μg/ml. This test is carried out in 96-well microplates. After incubation for 18 hours at 30° C. or 37° C., the optical density of the microplates is read at 595 nm in order to evaluate the bacterial growth and determine the minimum inhibitory concentration (MIC) for each molecule tested. Each measurement is performed in triplicate.
(§5) Moreover, the minimum bactericidal concentration (MBC) is determined by plating the contents of the wells where there is an absence of bacterial growth on dishes containing rich media (Luria broth or (LB) or Brain Heart Infusion (BHi). The MBC corresponds to the concentration at which no bacterial colony is detected after incubation for 24 hours at 30 or 37° C.

The subject of another data set is Salmonella thyphimurium. Description: Antibacterial activity in poor medium enriched with beef extract PBB. The data set is classed as cell-based. The following applies: increasing doses (FIG. 4). How it is done:
as §3, §4, §5

For data set [5], the system named is rabbit erythrocytes. The following applies: comparison peptide alternating L and D amino acids; cited from earlier work.

Regarding `CC(C)C[C@@H]1NC(=O)CN(Cc2ccc(F)c3ccccc23)NC(=O)[C@H](CC(C)C)NC(=O)CN(Cc2cccc3ccccc23)NC(=O)[C@H](CCCCN)NC(=O)CN(CCCCN)NC1=O` [4Fluo1Naf, c[-Leu-azaβ^3Lys-Lys-azaβ^3(1)-Nal-Leu-azaβ^3(4F-1)Nal-]], in the data set on sheep erythrocytes, the haemolytic activity entry is listed as “no significant haemolytic activity”.

`CC(C)C[C@@H]1NC(=O)CN(Cc2cccc3ccccc23)NC(=O)[C@H](CC(C)C)NC(=O)CN(Cc2cccc3ccccc23)NC(=O)[C@H](CCCCN)NC(=O)CN(CCCCN)NC1=O` [NafNaf, c[-Leu-azaβ^3Lys-Lys-azaβ^3(1)Nal-Leu-azaβ^3(1)Nal-]]: in the data set with rabbit erythrocytes [1] (at 20 μg/mL), the “action on the erythrocytes” value was “no action”. Further, the results for the haemolytic activity entry with rabbit erythrocytes [1] (at the concentrations at which it is bactericidal) and in the data set with sheep erythrocytes were “no haemolytic activity” and “no significant haemolytic activity”, respectively. Also, the CC50 in data set [2] is ~40 mg/L (≈ 43.4 µM). Further, in the data set on hamster cells (CHO-K1), the cytotoxic effect result is “no cytotoxic effect”. In addition, the LD50 entry in data set [3] (ascites 302-sp, compared with hamster cells) was “slightly lower”. For the same compound, the “effect on the cell viability” value in data set [3] (at 10 μg/mL) is listed as “slight effect”.

`CCCCCCCCCCCCN1CC(=O)N[C@@H](Cc2c[nH]c3ccccc23)C(=O)NN(Cc2cccc3ccccc23)CC(=O)N[C@@H](CCCCN)C(=O)NN(CCCCN)CC(=O)N[C@@H](CC2CCCCC2)C(=O)N1` [Chado, c[-Lys-azaβ^3Lys-Cha-azaβ^3Amy-Trp-azaβ^3(1)Nal-]]: the “activity on the Gram-negative bacteria” value in data set [4] is “no activity”.

Regarding `CC1(C)S[C@@H]2[C@H](NC(=O)[C@H](N)c3ccccc3)C(=O)N2[C@H]1C(=O)O` [Ampicillin], the “concentration at which active” value with Streptococcus aureus and in the data set with Salmonella thyphimurium was 1 µg/mL throughout.

Turning to `N=C(N)NCCC[C@@H]1NC(=O)CN(CC2CCCCC2)NC(=O)[C@H](Cc2c[nH]c3ccccc23)NC(=O)CN(Cc2ccc(F)cc2)NC(=O)[C@H](CC2CCCCC2)NC(=O)CN(CCCCN)NC1=O` [FluoKil, c[-Arg-azaβ^3Lys-Cha-azaβ^3(4)Fpa-Trp-azaβ^3Cha-]], the haemolytic activity result in the data set on sheep erythrocytes is on record as “no significant haemolytic activity”.

On to “[-(D)Lys-(L)Lys-(D)Leu-(L)Trp-(D)Leu-(L)Trp-]”, for which the “concentration at which haemolytic” value with rabbit erythrocytes [5] is 80 µg/mL.
